Counter-ions that a name gives are not always drawn.
Columns and labels:
[1] = Stability of BIL-1022 in water and methanol; type: physicochemical; conditions: low pH (3-5), room temperature (20-25° C.)
Procedure: The stability of BIL-1022 was briefly studied. BIL-1022 is stable in water and methanol at low pH (3-5) at room temperature (20-25° C.).

[2] = Water content (Karl-Fisher titration) after sitting uncapped on the bench overnight; type: physicochemical; conditions: 0.15% vs. 0.16%
Procedure: Water content was measured using Karl-fisher titration.

stability in water and methanol [1]: stable | water content of the product upon sitting in vial (uncapped) on the bench overnight [2]: remained substantially unchanged
SMILES: CC(=O)Nc1ccc(OC(=O)CCCN)cc1 [BIL-1022, 4-acetamidophenyl 4-aminobutanoate hydrochloride]
